Experimental findings from patent US20220363686A1 (AiCuris GmbH & Co. KG, priority 2018, published 2022) are described below.

Data set [1] concerns the target HBV core protein (C-terminal truncated core protein containing 149 amino acids of the N-terminal assembly domain) (UniProt P03146). The data set can be described thus: Biochemical capsid assembly assay (fluorescence quenching). The settings on record: read-out: Assembly Activity; BODIPY-FL labelled core protein, assembly started with NaCl, read after 6 min. The arrangement: rows headed: Assembly Activity; other: BODIPY-FL labelled core protein, assembly started with NaCl, read after 6 min. The method, then: The screening for assembly effector activity was done based on a fluorescence quenching assay published by Zotnick et al. (2007). The C-terminal truncated core protein containing 149 amino acids of the N-terminal assembly domain fused to a unique cysteine residue at position 150 and was expressed in E. coli using the pET expression system (Merck Chemicals, Darmstadt). Purification of core dimer protein was performed using a sequence of size exclusion chromatography steps. In brief, the cell pellet from 1 L BL21 (DE3) Rosetta2 culture expressing the coding sequence of core protein cloned NdeI/XhoI into expression plasmid pET21b was treated for 1 h on ice with a native lysis buffer (Qproteome Bacterial Protein Prep Kit; Qiagen, Hilden). After a centrifugation step the supernatant was precipitated during 2 h stirring on ice with 0.23 g/ml of solid ammonium sulfate. Following further centrifugation the resulting pellet was resolved in buffer A (100 mM Tris, pH 7.5; 100 mM NaCl; 2 mM DTT) and was subsequently loaded onto a buffer A equilibrated CaptoCore 700 column (GE HealthCare, Frankfurt). The column flow through containing the assembled HBV capsid was dialyzed against buffer N (50 mM NaHCO3 pH 9.6; 5 mM DTT) before urea was added to a final concentration of 3M to dissociate the capsid into core dimers for 1.5 h on ice. The protein solution was then loaded onto a IL Sephacryl S300 column. After elution with buffer N core dimer containing fractions were identified by SDS-PAGE and subsequently pooled and dialyzed against 50 mM HEPES pH 7.5; 5 mM DTT. To improve the assembly capacity of the purified core dimers a second round of assembly and disassembly starting with the addition of 5 M NaCl and including the size exclusion chromatography steps described above was performed. From the last chromatography step core dimer containing fractions were pooled and stored in aliquots at concentrations between 1.5 to 2.0 mg/ml at −80° C.
Immediately before labelling the core protein was reduced by adding freshly prepared DTT in a final concentration of 20 mM. After 40 min incubation on ice storage buffer and DTT was removed using a Sephadex G-25 column (GE HealthCare, Frankfurt) and 50 mM HEPES, pH 7.5. For labelling 1.6 mg/ml core protein was incubated at 4° C. and darkness overnight with BODIPY-FL maleimide (Invitrogen, Karlsruhe) in a final concentration of 1 mM. After labelling the free dye was removed by an additional desalting step using a Sephadex G-25 column. Labelled core dimers were stored in aliquots at 4° C. In the dimeric state the fluorescence signal of the labelled core protein is high and is quenched during the assembly of the core dimers to high molecular capsid structures. The screening assay was performed in black 384 well microtiter plates in a total assay volume of 10 μl using 50 mM HEPES pH 7.5 and 1.0 to 2.0 μM labelled core protein. Each screening compound was added in 8 different concentrations using a 0.5 log-unit serial dilution starting at a final concentration of 100 μM, 31.6 μM or 10 μM, In any case the DMSO concentration over the entire microtiter plate was 0.5%. The assembly reaction was started by the injection of NaCl to a final concentration of […] which induces the assembly process to approximately 25% of the maximal quenched signal. 6 min after starting the reaction the fluorescence signal was measured using a Clariostar plate reader (BMG Labtech, Ortenberg) with an excitation of 477 nm and an emission of 525 nm. As 100% and 0% assembly control HEPES buffer containing 2.5 M and 0 M NaCl was used. Experiments were performed thrice in triplicates. EC50 values were calculated by non-linear regression analysis using the Graph Pad Prism 6 software (GraphPad Software, La Jolla, USA).

Data set [2] in a line: Cell viability assay (AlamarBlue). Particulars: human, HepAD38 cells. (In general: Resazurin is reduced to fluorescent resorufin, in cell work by metabolically active cells.)
Method: Using the AlamarBlue viability assay cytotoxicity was evaluated in HepAD38 cells in the presence of 0.3 μg/ml tetracycline, which blocks the expression of the HBV genome. Assay condition and plate layout were in analogy to the anti-HBV assay, however other controls were used. On each assay plate six wells containing untreated HepAD38 cells were used as the 100% viability control, and six wells filled with assay medium only were used as 0% viability control. In addition, a geometric concentration series of cycloheximide starting at 60 μM final assay concentration was used as positive control in each experiment. After six days incubation period Alamar Blue Presto cell viability reagent (ThermoFisher, Dreieich) was added in 1/11 dilution to each well of the assay plate. After an incubation for 30 to 45 min at 37° C. the fluorescence signal, which is proportional to the number of living cells, was read using a Tecan Spectrafluor Plus plate reader with an excitation filter 550 nm and emission filter 595 nm, respectively. Data were normalized into percentages of the untreated control (100% viability) and assay medium (0% viability) before CC50 values were calculated using non-linear regression and the GraphPad Prism 6.0 (GraphPad Software, La Jolla, USA). Mean EC50 and CC50 values were used to calculate the selectivity index (SI=CC50/EC50) for each test compound.
Another data set concerns HBV. Briefly: Determination of HBV DNA from the supernatants of HepAD38 cells (anti-HBV activity). Format: cell-based, hepatitis B virus. Particulars: Hepatitis B virus, HePAD38, 144 h, HBV DNA in HepAD38 supernatant, day 6, qPCR; read-out: Cell Activity. The method, then: The anti-HBV activity was analysed in the stable transfected cell line HepAD38, which has been described to secrete high levels of HBV virion particles (Ladner et al., 1997). In brief, HepAD38 cells were cultured at 37° C. at 5% CO2 and 95% humidity in 200 μl maintenance medium, which was Dulbecco's modified Eagle's medium/Nutrient Mixture F-12 (Gibco, Karlsruhe), 10% fetal bovine serum (PAN Biotech Aidenbach) supplemented with 50 μg/ml penicillin/streptomycin (Gibco, Karlsruhe), 2 mM L-glutamine (PAN Biotech, Aidenbach), 400 μg/ml G418 (AppliChem, Darmstadt) and 0.3 μg/ml tetracycline. Cells were subcultured once a week in a 1:5 ratio, but were usually not passaged more than ten times. For the assay 60,000 cells were seeded in maintenance medium without any tetracycline into each well of a 96-well plate and treated with serial half-log dilutions of test compound. To minimize edge effects the outer 36 wells of the plate were not used but were filled with assay medium. On each assay plate six wells for the virus control (untreated HepAD38 cells) and six wells for the cell control (HepAD38 cells treated with 0.3 μg/ml tetracycline) were allocated, respectively. In addition, one plate set with reference inhibitors like BAY 41-4109, entecavir, and lamivudine instead of screening compounds were prepared in each experiment. In general, experiments were performed thrice in triplicates. At day 6 HBV DNA from 100 μl filtrated cell culture supernatant (AcroPrep Advance 96 Filter Plate, […] Supor membran, PALL GmbH, Dreieich) was automatically purified on the MagNa Pure LC instrument using the MagNA Pure 96 DNA and Viral NA Small Volume Kit (Roche Diagnostics, Mannheim) according to the instructions of the manufacturer. EC50 values were calculated from relative copy numbers of HBV DNA In brief, 5 μl of the 100 μl eluate containing HBV DNA were subjected to PCR LC480 Probes Master Kit (Roche) together with 1 μM antisense primer […], 0.5 μM sense primer […], 0.3 μM hybprobes […]-FL and LC640-[…]-PH (TIBMolBiol, Berlin) to a final volume of 12.5 μl. The PCR was performed on the Light Cycler 480 real time system (Roche Diagnostics, Mannheim) using the following protocol: Pre-incubation for 1 min at 95° C., amplification: 40 cycles×(10 sec at 95° C., 50 sec at 60° C., 1 sec at 70° C.), cooling for 10 sec at 40° C. Viral load was quantitated against known standards using HBV plasmid DNA of pCH-9/3091 (Nassal et al., 1990, Cell 63: 1357-1363) and the LightCycler 480 SW 1.5 software (Roche Diagnostics, Mannheim) and ECso values were calculated using non-linear regression with GraphPad Prism 6 (GraphPad Software Inc., La Jolla, USA).

HBV core protein (C-terminal truncated core protein containing 149 amino acids of the N-terminal assembly domain), sequence (P03146 whole entry, the tested form may be a part): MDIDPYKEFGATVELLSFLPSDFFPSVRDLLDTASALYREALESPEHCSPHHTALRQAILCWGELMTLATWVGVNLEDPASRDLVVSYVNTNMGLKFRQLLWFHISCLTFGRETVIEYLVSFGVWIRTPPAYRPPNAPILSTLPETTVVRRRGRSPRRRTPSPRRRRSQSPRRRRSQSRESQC

In general, CC50 refers to the concentration at which the toxic effect on the cells reaches its halfway point. A high value points to lower toxicity to the cells. Regarding `CC1Cn2ncc(C(=O)N(C)C3CC3)c2CN1C(=O)c1cc2ccccc2[nH]1` (racemic) [Example 2, N-cyclopropyl-5-(1H-indole-2-carbonyl)-N,6-dimethyl-4H,5H,6H,7H-pyrazolo[1,5-a]pyrazine-3-carboxamide], the IC50 in data set [1] is less than 5 µM. The CC50 at 6 days in data set [2] was more than 10 µM. Besides, the EC50 with HBV is less than 1 µM.
For `CC1Cn2ncc(C(=O)NC3(COC(F)F)CC3)c2CN1C(=O)c1cc2ccccc2[nH]1` (racemic) [Example 130, N-{1-[(difluoromethoxy)methyl]cyclopropyl}-5-(1H-indole-2-carbonyl)-6-methyl-4H,5H,6H,7H-pyrazolo[1,5-a]pyrazine-3-carboxamide] the same measures were less than 5 µM, more than 10 µM and less than 1 µM.
For `COCC1(N(C)C(=O)c2cnn3c2CN(C(=O)c2cc4ccccc4[nH]2)C(C)C3)CC1` (single isomer, unassigned) [Example 17, 5-(1H-indole-2-carbonyl)-N-[1-(methoxymethyl)cyclopropyl]-N,6-dimethyl-4H,5H,6H,7H-pyrazolo[1,5-a]pyrazine-3-carboxamide] the same measures were 5 to 10 µM, more than 10 µM and less than 1 µM.
The matching figures for `CC1Cn2ncc(C(=O)N(C)C3CC3)c2CN1C(=O)c1cc2ccccc2[nH]1` (single isomer, unassigned) [Example 18, N-cyclopropyl-5-(1H-indole-2-carbonyl)-N,6-dimethyl-4H,5H,6H,7H-pyrazolo[1,5-a]pyrazine-3-carboxamide]: less than 100 µM, more than 10 µM and 1 to 10 µM.
On to `CC1Cn2ncc(C(=O)NC3(COC(F)F)CC3)c2CN1C(=O)c1cc2ccccc2[nH]1` (single isomer, unassigned) [Example 131, N-{1-[(difluoromethoxy)methyl]cyclopropyl}-5-(1H-indole-2-carbonyl)-6-methyl-4H,5H,6H,7H-pyrazolo[1,5-a]pyrazine-3-carboxamide], for which the IC50 in data set [1] was less than 5 µM. The CC50 at 6 days in data set [2] was more than 10 µM. Further, in the data set on HBV, the EC50 is less than 1 µM.
The matching figures for `COCC1(N(C)C(=O)c2cnn3c2CN(C(=O)c2cc4ccccc4[nH]2)C(C)C3)CC1` (stereo not drawn) [Example 1, 5-(1H-indole-2-carbonyl)-N-[1-(methoxymethyl)cyclopropyl]-N,6-dimethyl-4H,5H,6H,7H-pyrazolo[1,5-a]pyrazine-3-carboxamide]: less than 5 µM, more than 10 µM and less than 1 µM.
Consider `O=C(c1cc2c(F)c(F)ccc2[nH]1)N1CCn2ncc(C3CCC3)c2C1` [Example 3, 2-{3-cyclobutyl-4H,5H,6H,7H-pyrazolo[1,5-a]pyrazine-5-carbonyl}-4,5-difluoro-1H-indole], for which the IC50 in data set [1] was less than 5 µM. The cytotoxic concentration (CC50) at 6 days in data set [2] is more than 10 µM. The EC50 in the data set with HBV was less than 1 µM.
For `Cc1cc(F)cc2[nH]c(C(=O)N3CCn4ncc(C5CCC5)c4C3)cc12` [Example 4, 2-{3-cyclobutyl-4H,5H,6H,7H-pyrazolo[1,5-a]pyrazine-5-carbonyl}-6-fluoro-4-methyl-1H-indole], the IC50 in data set [1] was less than 5 µM. The same molecule displayed a 50% cytotoxic concentration (CC50) at 6 days in data set [2] of more than 10 µM. In addition, the EC50 with HBV is less than 1 µM.
The matching figures for `O=C(c1cc2c(F)cc(F)cc2[nH]1)N1CCn2ncc(C3CCC3)c2C1` [Example 5, 2-{3-cyclobutyl-4H,5H,6H,7H-pyrazolo[1,5-a]pyrazine-5-carbonyl}-4,6-difluoro-1H-indole]: less than 5 µM, more than 10 µM and less than 1 µM.
For `O=C(c1cc2ccccc2[nH]1)N1CCn2ncc(C3CCC3)c2C1` [Example 6, 2-{3-cyclobutyl-4H,5H,6H,7H-pyrazolo[1,5-a]pyrazine-5-carbonyl}-1H-indole] the same measures were less than 5 µM, more than 10 µM and less than 1 µM.
With `COCC1(N(C)C(=O)c2cnn3c2CN(C(=O)c2cc4c(Cl)cccc4[nH]2)CC3)CC1` [Example 7, 5-(4-chloro-1H-indole-2-carbonyl)-N-[1-(methoxymethyl)cyclopropyl]-N-methyl-4H,5H,6H,7H-pyrazolo[1,5-a]pyrazine-3-carboxamide], the IC50 in data set [1] is less than 5 µM. For the same molecule, in data set [2], the CC50 at 6 days was more than 10 µM. Moreover, the EC50 in the data set with HBV is less than 1 µM.
Regarding `O=C(c1cc2ccccc2[nH]1)N1CCn2ncc(S(=O)(=O)N3CCC(F)(F)CC3)c2C1` [Example 34, 2-{3-[(4,4-difluoropiperidin-1-yl)sulfonyl]-4H,5H,6H,7H-pyrazolo[1,5-a]pyrazine-5-carbonyl}-1H-indole], the CC50 at 6 days in data set [2] is more than 10 µM. The EC50 in the data set on HBV was less than 1 µM.
In turn, `O=C(c1cc2c(Cl)cccc2[nH]1)N1CCn2ncc(C(=O)N3CCC(F)(F)C3)c2C1` [Example 99, 4-chloro-2-[3-(3,3-difluoropyrrolidine-1-carbonyl)-4H,5H,6H,7H-pyrazolo[1,5-a]pyrazine-5-carbonyl]-1H-indole] registered a CC50 at 6 days in data set [2] of more than 10 µM. Further, the EC50 with HBV was less than 1 µM.
For `O=C(c1cc2c(Cl)cc(F)cc2[nH]1)N1CCn2ncc(C(=O)N3CCC(F)(F)C3)c2C1` [Example 140, 4-chloro-2-[3-(3,3-difluoropyrrolidine-1-carbonyl)-4H,5H,6H,7H-pyrazolo[1,5-a]pyrazine-5-carbonyl]-6-fluoro-1H-indole] the same measures were more than 10 µM and less than 1 µM.
